Measurements reported in patent US20240116857A1 (St. Louis University, priority 2022, published 2024).
Like-named read-outs stand apart in the source and are kept apart here.

Experiments:
[1] = tested on: Acinetobacter baumannii Ab5075; assay: MIC, 2-fold broth dilution; format: cell-based
[2] = tested on: Acinetobacter baumannii ATCC17978 Δ3-Pore; assay: MIC, permeabilized bacteria; format: cell-based
[3] = Cytotoxicity assay (CellTiter AQueous One Solution, MTS); format: cell-based; conditions: human, HEK293 cells, 24 h incubation
Method: Cytotoxicity of the compounds was evaluated using the CellTiter AQueous One Solution Cell Proliferation Assay (MTS; Promega) as previously described (2). HEK293 cells were incubated with a 2-fold serially diluted compounds for 24 h at 37° C. with 5% CO2, followed by addition of 20 μL of CellTiter AQueous and further incubated for 4 h at 37° C. The absorbance at 490 nm was recorded using a Tecan Spark 10 M plate reader. All measurements were done in three replicas. The growth curves were then fitted to a sigmoidal equation to determine the cytotoxicity concentration CC50.

[4] = tested on: Pseudomonas aeruginosa BAA 2108; assay: MIC, 2-fold broth dilution; format: cell-based; conditions: BAA2108
[5] = tested on: Burkholderia thailandensis; assay: microbe, parasite or virus in culture; format: cell-based
[6] = tested on: Staphylococcus aureus ATCC 700787; assay: MIC, 2-fold broth dilution; format: cell-based; conditions: ATCC700787
[7] = tested on: Klebsiella oxytoca ATCC700324 Pore; assay: MIC, permeabilized bacteria; format: cell-based
[8] = tested on: Acinetobacter baumannii AYE; assay: MIC, 2-fold broth dilution; format: cell-based
Yersinia pestis KIM6+ = assay: microbe, parasite or virus in culture; format: cell-based
[9] = tested on: Pseudomonas aeruginosa 273; assay: MIC, 2-fold broth dilution; format: cell-based; conditions: WT, clinical non MDR
[10] = tested on: Acinetobacter baumannii Ab5075 ΔIJK; assay: MIC, permeabilized bacteria; format: cell-based
[11] = tested on: Pseudomonas aeruginosa 462; assay: MIC, 2-fold broth dilution; format: cell-based; conditions: WT, clinical non MDR
[12] = tested on: Pseudomonas aeruginosa 515; assay: MIC, 2-fold broth dilution; format: cell-based; conditions: WT, clinical non MDR
[13] = tested on: Staphylococcus aureus ATCC 25923; assay: MIC, 2-fold broth dilution; format: cell-based; conditions: ATCC25923, non MDR
[14] = tested on: Pseudomonas aeruginosa MP 2019; assay: MIC, 2-fold broth dilution; format: cell-based; conditions: MP2019, WT, MDR
[15] = tested on: Pseudomonas aeruginosa PAO1 Δ6-Pore; assay: MIC, permeabilized bacteria; format: cell-based
[16] = tested on: Burkholderia thailandensis Δ2-Pore; assay: microbe, parasite or virus in culture; format: cell-based
[17] = tested on: Klebsiella oxytoca ATCC700324; assay: MIC, 2-fold broth dilution; format: cell-based; conditions: WT
Method: (§1) Luria-Bertani (LB) broth (10 g of Bacto tryptone, 5 g of yeast extract, and 5 g of NaCl per liter; pH 7.0) was used for bacterial growth. The bacterial strains were inoculated overnight at 37° C. Cells were 1:100 subcultured into a fresh 30-ml volume of LB medium and grown at 37° C. to an optical density at 600 nm (OD600) of 0.3. When appropriate, the cells cultures were supplemented with 0.1% L-arabinose or 0.1 mM isopropyl β-d-1-thiogalactopyranoside (IPTG), to induce expression of the “Pore” protein. The cells were cultured up to OD600 of 1.0. The test compounds were dissolved in dimethylsulfoxide (DMSO) to make the final 10 mM stock solution. The minimal inhibitory concentrations (MIC) were determined using the 2-fold broth dilution method (1). The OD600 was measured using a Tecan Spark 10 M microplate reader.

[18] = tested on: Klebsiella pneumoniae ATCC13883; assay: MIC, 2-fold broth dilution; format: cell-based; conditions: WT
Method: as §1

[19] = tested on: Acinetobacter baumannii ATCC17978; assay: MIC, 2-fold broth dilution; format: cell-based; conditions: WT
Method: as §1

[20] = tested on: Enterobacter cloacae ATCC13047; assay: MIC, 2-fold broth dilution; format: cell-based; conditions: WT
Method: as §1

[21] = tested on: Pseudomonas aeruginosa PAO1; assay: MIC, 2-fold broth dilution; format: cell-based; conditions: WT
Method: as §1

[22] = tested on: Klebsiella aerogenes ATCC13048; assay: MIC, 2-fold broth dilution; format: cell-based; conditions: WT
Method: as §1

E. coli BW25113 = assay: MIC, 2-fold broth dilution, E. coli BW25113; format: cell-based, Escherichia coli; conditions: Escherichia coli, E. coli BW25113
[23] = tested on: Acinetobacter baumannii AYE ΔB ΔIJK; assay: MIC, permeabilized bacteria; format: cell-based
[24] = asterisk in column 1-10, read-out: MIC, μM 1-10

With `C[n+]1ccc(Nc2ccc(NC(=O)c3ccc(-c4ccc(C(=O)Nc5ccc(Nc6cc[n+](C)cc6)cc5)cc4)cc3)cc2)cc1` [Example 17, 4,4′-(((([1,1′-biphenyl]-4,4′-dicarbonyl)bis(azanediyl))bis(4,1-phenylene))bis(azanediyl))bis(1-methylpyridin-1-ium)] the MIC [1] was 12.5 µM, the MIC [2] was 0.8 µM and the CC50 at 24 h [3] was greater than 1000 µM. The MIC [4] was greater than 100 µM, the MIC [5] was greater than 100 µM and the MIC [6] was 0.4 µM. The MIC [7] was greater than 100 µM, the MIC [8] was greater than 100 µM and the MIC (Yersinia pestis KIM6+) was 100 µM. For the same compound, the MIC [9] was 12.5 µM, the MIC [10] was 6.2 µM and the MIC [11] was 12.5 µM. The MIC [12] was greater than 100 µM, the MIC [13] was 0.8 µM and the MIC [14] was greater than 100 µM. The MIC [15] was 0.2 µM, the MIC [16] was 0.8 µM and the MIC [17] was greater than 100 µM. It also gave an MIC [18] of 3.1 µM, an MIC [19] of 6.2 µM and an MIC [20] of 50 µM. For the same compound, the MIC [21] was 6.2 µM, the MIC [22] was 6.2 µM and the MIC (E. coli BW25113; asterisk in column <1, read-out: MIC, μM <1) was less than 1 µM. For the same compound, the MIC [23] was 0.2 µM.

`C[n+]1ccc(Nc2ccc(NC(=O)c3ccc(C(=O)Nc4ccc(Nc5cc[n+](C)cc5)cc4)c(Cl)c3)cc2)cc1` [Example 20, 4,4′-((((2-chloroterephthaloyl)bis(azanediyl))bis(4,1-phenylene))bis(azanediyl))bis(1-methylpyridin-1-ium)] gave an MIC [1] of 25 µM, an MIC [2] of 0.8 µM and a CC50 at 24 h [3] greater than 1000 µM. It also gave an MIC [4] greater than 100 µM, an MIC [5] greater than 100 µM and an MIC [6] of 1.6 µM. For the same compound, the MIC [7] was 25 µM, the MIC [8] was 25 µM and the MIC (Yersinia pestis KIM6+) was 1.6 µM. It also gave an MIC [9] of 12.5 µM, an MIC [10] of 25 µM and an MIC [11] of 12.5 µM. The MIC [12] was 25 µM, the MIC [13] was 0.8 µM and the MIC [14] was 12.5 µM. It also gave an MIC [15] of 0.2 µM, an MIC [16] of 6.2 µM and an MIC [17] of 25 µM. The MIC [18] was 12.5 µM, the MIC [19] was 3.1 µM and the MIC [20] was 12.5 µM. For the same compound, the MIC [21] was 25 µM, the MIC [22] was 12.5 µM and the MIC (E. coli BW25113; [24]) was 1 to 10 µM. For the same compound, the MIC [23] was 0.2 µM.

With `C[n+]1ccc(Nc2ccc(NC(=O)c3ccc(C(=O)Nc4ccc(Nc5cc[n+](C)cc5)cc4)c(OC(F)(F)F)c3)cc2)cc1` [Example 44, 4,4′-((((2-(trifluoromethoxy)terephthaloyl)bis(azanediyl))bis(4,1-phenylene))bis(azanediyl))bis(1-methylpyridin-1-ium)] the MIC [1] was 25 µM, the MIC [2] was 0.4 µM and the CC50 at 24 h [3] was 290 µM. The MIC [4] was 100 µM, the MIC [5] was greater than 100 µM and the MIC [6] was 0.2 µM. The MIC [7] was 50 µM, the MIC [8] was 25 µM and the MIC (Yersinia pestis KIM6+) was 1.6 µM. For the same compound, the MIC [9] was 25 µM, the MIC [10] was 12.5 µM and the MIC [11] was 50 µM. The MIC [12] was 50 µM, the MIC [13] was 0.4 µM and the MIC [14] was 25 µM. It also gave an MIC [15] of 0.4 µM, an MIC [16] of 6.2 µM and an MIC [17] of 100 µM. For the same compound, the MIC [18] was 25 µM, the MIC [19] was 3.1 µM and the MIC [20] was 25 µM. For the same compound, the MIC [21] was 25 µM, the MIC [22] was 50 µM and the MIC (E. coli BW25113; [24]) was 1 to 10 µM. It also gave an MIC [23] of 0.1 µM.
